# Laboratory results from US20180251847A1, “METHOD OF PREDICTING THE TUMOR RESPONSE TO DNA METHYLATION INHIBITORS AND ALTERNATIVE THERAPEUTIC REGIMEN FOR OVERCOMING RESISTANCE” (PALACKY UNIVERSITY, OLOMOUC, priority 2014, published 2018).
# Where two headings read alike, the source gives them in different places.
# How the values were obtained:
# DAC resistant cell lines = assay: MTT based cell survival assay, DAC resistant cell lines as a group; settings: Homo sapiens, all of the resistant cell lines, read-out: resistance to DAC (IC50)
# Protocol: The DAC resistant HCT116 cell lines were developed using two methods. […] After long term exposure of the cells to cytotoxic dose of the drug, the bulk population was determined to be resistant.
# (§1) For cross validation of data obtained from comparative studies of HCT116 parental and resistant cells, we further developed DAC resistant MCF-7 and HL-60 cell lines. […] However, DAC resistant HL-60 cells were obtained as a gift from the author (Qin T. et al., Blood 2009; 113, 659-67) and was further selected in our laboratory by treatment with 5 μM DAC.
# Resistance to DAC was confirmed by the MTT-based cell survival assay and resistance index was calculated as the fold increase in the IC50 of the resistant cell lines compared with the untreated control. All of the resistant cell lines were >100 μM resistant to DAC. […]
# (§2) To determine the IC50 of the epigenetic drugs (Tocris Bioscience, Bristol, United Kingdom), four independent experiments were performed using triplicate wells of 96 well plates. […] The wells with medium alone were included alongside as blank for absorbance readings. […]
# (§3) Cross resistance was determined as the fold increase, whereas, the sensitivity was determined as the fold decrease in the IC50 of the drugs for the resistant cell lines compared to their genetically identical drug sensitive counterpart.
# R2.1 (HCT116-RDAC) = assay: MTT based cell survival assay, DAC resistant HCT116 clone R2.1; design: species or system human
# Protocol: (§4) The DAC resistant HCT116 cell lines were developed using two methods.
# (§5) The method is primarily based on reduction of yellow colored tetrazolium salt, 3-(4,5-dimethylthiazol-2-yl)-2,5-diphenyltetrazolium bromide (MTT) to insoluble purple colored formazan crystals by NAD(P)H-dependent oxidoreductase enzymes in mitochondria of the viable cell.
# (§6) Cells in 80 μL of medium were plated in each of the experimental and the control wells, followed by addition of 20 μL medium with five-fold drug concentration to experimental wells. The wells with medium alone were included alongside as blank for absorbance readings. After 72 h of drug treatment, 10 μL MTT (Sigma-Aldrich) prepared in 1×PBS (5 mg/mL) was added to all wells including blank and control, and incubated until the purple formazan crystals were visible after which 100 μL of detergent (10% SDS, pH: 5.5) was added and the plates were incubated overnight to solubilize the formazan and the cellular material.
# as §3
# MCF-7_RDAC = assay: MTT based cell survival assay, DAC resistant MCF-7; design: species or system human
# Protocol: as §1
# (§7) MTT based cell survival assay was performed in either case, whether to determine the cross-resistance of the DAC resistant cell lines towards inhibitors of DNA methyltransferases, histone acetyltransferases, histone methyltransferases, histone deacetylases, and histone demethylases, or to determine their sensitivity towards selective BET bromodomain inhibitors. […]
# as §2, §3
# HCT116 = assay: MTT based cell survival assay, parental HCT116; design: species or system human; settings: Homo sapiens
# Protocol: To study the mechanism of resistance towards DNA methylation inhibitor, 2′-deoxy-5-azacytidine, we used the human colorectal cancer cell line (HCT116), human promyelocytic leukemia cells (HL-60), and human breast adenocarcinoma cell line (MCF-7) obtained from American Type Culture Collection (Manassas, Va.). The cell lines were cultured in complete growth media (Sigma-Aldrich, St. Louis, Mo.), supplemented with fetal bovine serum (FBS, PAN-Biotech GmbH, Aidenbach, Germany), 100 U/mL penicillin (Biotika, Slovenská L'upča, Slovak Republic) and 50 μg/mL streptomycin (Sigma-Aldrich), and the cultures were maintained at 37° C. and 5% CO2, in a humidified incubator. The cell line, HCT116 was grown in McCoy's 5 A medium supplemented with 10% FBS and 3 mM L-glutamine (Sigma-Aldrich), HL-60 was grown in Iscove's Modified Dulbecco's Medium with 20% FBS, and MCF-7 was grown in RPMI-1640 medium with 10% FBS.
# as §5, with “cell. The intensity of the purple color produced on solubilization of the formazan crystals is directly proportional to the number of viable cells (Meerloo J. V. et al., Methods in Molecular Biology 2011; 731, 237-45).” for “cell.”
# as §6, with “To determine the IC50 of the epigenetic drugs (Tocris Bioscience, Bristol, United Kingdom), four independent experiments were performed using triplicate wells of 96 well plates. Cells” for “Cells”, “[…],” for “After 72 h of drug treatment,”
# as §3
# R1.4 (HCT116-RDAC) = assay: MTT based cell survival assay, DAC resistant HCT116 clone R1.4; design: species or system human
# Protocol: as §4, §5, §6, §3
# HL-60_RDAC = assay: MTT based cell survival assay, DAC resistant HL-60; design: species or system human
# Protocol: as §1, §7, §2, §3
smiles,measurement,setting,value
"Nc1ncn([C@H]2C[C@H](O)[C@@H](CO)O2)c(=O)n1 [DAC, 2′-deoxy-5-azacytidine]",IC50,DAC resistant cell lines,> 100 µM
same,IC50,"R2.1 (HCT116-RDAC); Homo sapiens, HCT-116, R2.1, MTT, 72 h drug treatment",> 100 µM
same,fold change (resistance index),R2.1 (HCT116-RDAC); IC50 R2.1 / IC50 HCT116,(>357) fold
same,IC50,"MCF-7_RDAC; Homo sapiens, MCF7, read-out: Mean IC50",> 100 µM
same,fold change (resistance),MCF-7_RDAC; IC50 MCF-7_RDAC / IC50 MCF-7,> 421 fold
same,IC50,"HCT116; HCT-116, 72 h, read-out: Mean IC50",0.28 µM
same,IC50,"HCT116; HCT-116, 120 h, read-out: IC50 concentration of the drug",0.28 µM
same,IC50,"R1.4 (HCT116-RDAC); Homo sapiens, HCT-116, 72 h, read-out: Mean IC50",> 100 µM
same,fold change (resistance index),R1.4 (HCT116-RDAC); IC50 R1.4 / IC50 HCT116,(>357) fold
same,IC50,"HL-60_RDAC; Homo sapiens, HL-60, read-out: Mean IC50",> 100 µM
same,fold change (resistance),HL-60_RDAC; IC50 HL-60_RDAC / IC50 HL-60,> 1289 fold
